According to patent US10683269B2 (MISSION THERAPEUTICS LIMITED, priority 2016, dated 2020):

Biological target: T1, USP7 (Homo sapiens, UniProt Q93009)
T1 construct: The USP7 construct was PCR amplified and cloned into a pFLAG-CMV-6a vector (Sigma-Aldrich) with an N-terminal FLAG tag; made in house; host or cells: HEK293T
Test: USP7 biochemical IC50 assay (fluorescence polarisation, TAMRA labelled peptide linked to ubiquitin via an iso-peptide bond)
Details: 30 min pre-incubation of enzyme and compound, read after 2 hr incubation at room temperature, read-out: IC50 range
Description: In Vitro USP7 Inhibition Assay
Expression and Purification of USP7
The USP7 construct was PCR amplified and cloned into a pFLAG-CMV-6a vector (Sigma-Aldrich) with an N-terminal FLAG tag. HEK293T cells were transfected with FLAG-USP7 using TransIT-LT1 transfection reagent (Mirus) according to the manufacturer's instructions. Cells were harvested 40 hours after transfection. […] The resin was washed two times with low salt buffer plus protease inhibitors (complete mini, Roche) and phosphatase inhibitors (PhosSTOP mini, Roche) and one time with high salt buffer (20 mM Tris, pH 7.5, 500 mM NaCl, 0.5 mM EDTA, 5 mM beta-mercaptoethanol, protease inhibitors (complete mini, Roche) and phosphatase inhibitors (PhosSTOP mini, Roche). To elute the bound USP7, elution buffer (10 mM Tris, pH 7.5, 150 mM NaCl, 0.5 mM EDTA, 10% glycerol, 0.5% NP40, 5 mM beta-mercaptoethanol, 0.15 mg/ml 3×FLAG peptide (Sigma-Aldrich)) was added to the resin and incubated at 4° C. for 2.5 hours rotating. The resin was centrifuged at 4000 rpm for 30 seconds, and the supernatant containing purified FLAG-USP7 was removed and stored at −80° C.
USP7 Biochemical IC50 Assay
A typical 8-point dilution series would be 100, 30, 10, 3, 1, 0.3, 0.1, 0.03 μM final. […] Either 1 μl of 50% DMSO or diluted compound was added to the plate. USP7 was diluted in reaction buffer (20 mM Tris, pH 7.5, 100 mM NaCl, 0.05% Tween 20, 0.5 mg/ml BSA, 5 mM—beta mercaptoethanol) to the equivalent of 0.0025 μl/well and 10 μl of diluted USP7 was added to the compound. Enzyme and compound were incubated for 30 min at room temp. Reactions were initiated by the addition of 50 nM of TAMRA labelled peptide linked to ubiquitin via an iso-peptide bond as fluorescence polarisation substrate. Reactions were read immediately after addition of substrate and following a 2 hr incubation at room temperature. Readings were performed on a Pherastar Plus (BMG Labtech). λ Excitation 540 nm; λ Emission 590 nm.

T1 sequence (Q93009 whole entry): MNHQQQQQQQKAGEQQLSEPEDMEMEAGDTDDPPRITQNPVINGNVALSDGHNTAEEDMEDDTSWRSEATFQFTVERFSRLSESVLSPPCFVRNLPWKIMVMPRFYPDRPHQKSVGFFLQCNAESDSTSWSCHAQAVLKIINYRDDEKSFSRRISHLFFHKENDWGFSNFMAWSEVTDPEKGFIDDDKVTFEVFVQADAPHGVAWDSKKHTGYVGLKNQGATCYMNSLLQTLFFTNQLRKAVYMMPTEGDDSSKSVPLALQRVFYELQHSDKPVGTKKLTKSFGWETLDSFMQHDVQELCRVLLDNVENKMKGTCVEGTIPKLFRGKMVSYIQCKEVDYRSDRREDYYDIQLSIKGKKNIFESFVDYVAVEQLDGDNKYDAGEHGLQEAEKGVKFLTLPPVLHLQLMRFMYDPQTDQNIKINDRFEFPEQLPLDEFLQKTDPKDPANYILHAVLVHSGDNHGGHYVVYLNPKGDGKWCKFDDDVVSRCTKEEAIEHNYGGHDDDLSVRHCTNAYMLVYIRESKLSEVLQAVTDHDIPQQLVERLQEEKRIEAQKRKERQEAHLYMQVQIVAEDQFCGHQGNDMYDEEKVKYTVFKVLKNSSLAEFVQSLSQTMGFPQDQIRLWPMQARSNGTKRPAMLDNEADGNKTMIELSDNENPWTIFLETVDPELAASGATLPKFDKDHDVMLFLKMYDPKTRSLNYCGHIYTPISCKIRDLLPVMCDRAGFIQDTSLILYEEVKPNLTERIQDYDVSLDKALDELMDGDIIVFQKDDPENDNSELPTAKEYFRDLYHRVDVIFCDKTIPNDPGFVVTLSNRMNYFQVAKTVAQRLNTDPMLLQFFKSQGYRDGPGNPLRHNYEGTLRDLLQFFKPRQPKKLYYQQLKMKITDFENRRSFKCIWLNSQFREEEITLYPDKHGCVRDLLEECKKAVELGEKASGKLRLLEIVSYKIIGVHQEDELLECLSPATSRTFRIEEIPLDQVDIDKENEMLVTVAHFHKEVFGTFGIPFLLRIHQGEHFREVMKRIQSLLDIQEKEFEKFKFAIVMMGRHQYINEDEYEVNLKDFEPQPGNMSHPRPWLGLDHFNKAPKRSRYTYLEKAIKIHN

Row | Compound | IC50
1 | CN1CCCC(C(=O)Nc2cc3c(c(-c4ccccc4)c2)CN(C#N)C3)C1 (racemic) [Example 36, N-(2-cyano-7-phenylisoindolin-5-yl)-1-methylpiperidine-3-carboxamide] | < 1000 nM
2 | CC1c2cccc(-c3ccc(C#N)cc3C(N)=O)c2CN1C#N (single isomer, unassigned) [Example 259, 5-cyano-2-(2-cyano-1-methylisoindolin-4-yl)benzamide] | 1000 to 10000 nM
3 | N#Cc1ccc(-c2cccc3c2CN(C#N)C3)c(C(N)=O)c1 [Example 1, 5-cyano-2-(2-cyanoisoindolin-4-yl)benzamide] | 1000 to 10000 nM
4 | N#Cc1ccc(-c2cccc3c2CN(C#N)C3)c(C(=O)N2CCC2)c1 [Example 4, 4-(2-(azetidine-1-carbonyl)-4-cyanophenyl)isoindoline-2-carbonitrile] | 1000 to 10000 nM
5 | Cn1cc(Nc2cc3c(c(-c4ccccc4)c2)CN(C#N)C3)cn1 [Example 5, 6-((1-methyl-1H-pyrazol-4-yl)amino)-4-phenylisoindoline-2-carbonitrile] | < 1000 nM
6 | N#CN1Cc2cccc(-c3ccccc3)c2C1 [Example 6, 4-phenylisoindoline-2-carbonitrile] | 1000 to 10000 nM
7 | Cn1cc(-c2cccc3c2CN(C#N)C3)cn1 [Example 7, 4-(1-methyl-1H-pyrazol-4-yl)isoindoline-2-carbonitrile] | 1000 to 10000 nM
8 | CN1CC=C(c2cccc3c2CN(C#N)C3)CC1 [Example 10, 4-(1-methyl-1,2,3,6-tetrahydropyridin-4-yl)isoindoline-2-carbonitrile] | 1000 to 10000 nM
9 | CN1CCC(c2cccc3c2CN(C#N)C3)CC1 [Example 14, 4-(1-methylpiperidin-4-yl)isoindoline-2-carbonitrile] | 30000 to 100000 nM
10 | N#CN1Cc2nccc(-c3ccc(Cl)cc3)c2C1 [Example 16, 4-(4-chlorophenyl)-5,7-dihydro-6H-pyrrolo[3,4-b]pyridine-6-carbonitrile] | 1000 to 10000 nM
11 | COc1ccc(-c2ccnc3c2CN(C#N)C3)cc1 [Example 17, 4-(4-methoxyphenyl)-5,7-dihydro-6H-pyrrolo[3,4-b]pyridine-6-carbonitrile] | 1000 to 10000 nM
12 | N#CN1Cc2nccc(-c3cccc(Cl)c3)c2C1 [Example 18, 4-(3-chlorophenyl)-5,7-dihydro-6H-pyrrolo[3,4-b]pyridine-6-carbonitrile] | 1000 to 10000 nM
13 | N#CN1Cc2ccnc(-c3ccccc3)c2C1 [Example 19, 4-phenyl-1,3-dihydro-2H-pyrrolo[3,4-c]pyridine-2-carbonitrile] | 1000 to 10000 nM
14 | N#CN1Cc2cccc(Nc3ncc4ccccc4n3)c2C1 [Example 21, 4-(quinazolin-2-ylamino)isoindoline-2-carbonitrile] | 1000 to 10000 nM
15 | CNC(=O)c1ccc2cnc(Nc3cccc4c3CN(C#N)C4)cc2c1 [Example 22] | 1000 to 10000 nM
16 | N#CN1Cc2cc(NC(=O)c3cccnc3)cc(-c3ccccc3)c2C1 [Example 23, N-(2-cyano-7-phenylisoindolin-5-yl)nicotinamide] | 30000 to 100000 nM
17 | CC(=O)Nc1cc2c(c(-c3ccccc3C(N)=O)c1)CN(C#N)C2 [Example 24, 2-(6-acetamido-2-cyanoisoindolin-4-yl)benzamide] | 1000 to 10000 nM
18 | CN1CCC[C@@H](C(=O)Nc2cc3c(c(-c4ccc(C#N)cc4)c2)CN(C#N)C3)C1 [Example 26, (R)-N-(2-cyano-7-(4-cyanophenyl)isoindolin-5-yl)-1-methylpiperidine-3-carboxamide] | < 1000 nM
19 | CNC(=O)c1ccc(-c2cc(NC(=O)[C@@H]3CCCN(C)C3)cc3c2CN(C#N)C3)cc1 [Example 29, (R)-N-(2-cyano-7-(4-(methylcarbamoyl)phenyl)isoindolin-5-yl)-1-methylpiperidine-3-carboxamide] | < 1000 nM
20 | CNC(=O)c1cccc(-c2cc(NC(=O)[C@@H]3CCCN(C)C3)cc3c2CN(C#N)C3)c1 [Example 30] | 1000 to 10000 nM
21 | COc1cccc(-c2cc(NC(=O)[C@@H]3CCCN(C)C3)cc3c2CN(C#N)C3)c1 [Example 31, (R)-N-(2-cyano-7-(3-methoxyphenyl)isoindolin-5-yl)-1-methylpiperidine-3-carboxamide] | 1000 to 10000 nM
22 | COc1ccc(-c2cc(NC(=O)[C@@H]3CCCN(C)C3)cc3c2CN(C#N)C3)cc1 [Example 32, (R)-N-(2-cyano-7-(4-methoxyphenyl)isoindolin-5-yl)-1-methylpiperidine-3-carboxamide] | < 1000 nM
23 | CN1CCC[C@H](C(=O)Nc2cc3c(c(-c4ccccc4)c2)CN(C#N)C3)C1 [Example 37, (S)—N-(2-cyano-7-phenylisoindolin-5-yl)-1-methylpiperidine-3-carboxamide] | < 1000 nM

More lines, now with the values ahead:

Row | IC50 | Compound
24 | 1000 to 10000 nM | CN1CCOC(CNc2nc3c(c(-c4ccccc4)n2)CN(C#N)C3)C1 (single isomer, unassigned) [Example 152, 2-(((4-methylmorpholin-2-yl)methyl)amino)-4-phenyl-5,7-dihydro-6H-pyrrolo[3,4-d]pyrimidine-6-carbonitrile]
25 | < 1000 nM | CN1CCOC(CNc2nc3c(c(-c4ccccc4)n2)CN(C#N)C3)C1 (single isomer, unassigned) [Example 153, 2-(((4-methylmorpholin-2-yl)methyl)amino)-4-phenyl-5,7-dihydro-6H-pyrrolo[3,4-d]pyrimidine-6-carbonitrile]
26 | 10000 to 30000 nM | CC1c2cccc(-c3ccc(Cl)cc3C(N)=O)c2CN1C#N (single isomer, unassigned) [Example 258, 5-chloro-2-(2-cyano-1-methylisoindolin-4-yl)benzamide]
27 | 1000 to 10000 nM | N#CN1Cc2cccc(-c3ccc(Cl)cc3C(N)=O)c2C1 [Example 2, 5-chloro-2-(2-cyanoisoindolin-4-yl)benzamide]
28 | 1000 to 10000 nM | Cc1ccc(-c2cccc3c2CN(C#N)C3)c(C(N)=O)c1 [Example 3, 2-(2-cyanoisoindolin-4-yl)-5-methylbenzamide]
29 | 1000 to 10000 nM | N#CN1Cc2cccc(-c3cnc4ccccc4c3)c2C1 [Example 8, 4-(quinolin-3-yl)isoindoline-2-carbonitrile]
30 | 1000 to 10000 nM | N#CN1Cc2cccc(-c3cnc4[nH]ccc4c3)c2C1 [Example 9, 4-(1H-pyrrolo[2,3-b]pyridin-5-yl)isoindoline-2-carbonitrile]
31 | 1000 to 10000 nM | Cn1cc2cc(-c3cccc4c3CN(C#N)C4)ccc2n1 [Example 11, 4-(2-methyl-2H-indazol-5-yl)isoindoline-2-carbonitrile]
32 | 1000 to 10000 nM | Cc1ccccc1-c1cccc2c1CN(C#N)C2 [Example 12, 4-(o-tolyl)isoindoline-2-carbonitrile]
33 | 1000 to 10000 nM | N#Cc1ccc(-c2cccc3c2CN(C#N)C3)cc1 [Example 13, 4-(4-cyanophenyl)isoindoline-2-carbonitrile]
34 | 10000 to 30000 nM | N#CN1Cc2nccc(-c3cccc(C(=O)NCc4ccccc4)c3)c2C1 [Example 15, N-benzyl-3-(6-cyano-6,7-dihydro-5H-pyrrolo[3,4-b]pyridin-4-yl)benzamide]
35 | 1000 to 10000 nM | Cc1nc(-c2cc3c(c(-c4ccccc4)c2)CN(C#N)C3)no1 [Example 20, 6-(5-methyl-1,2,4-oxadiazol-3-yl)-4-phenylisoindoline-2-carbonitrile]
36 | < 1000 nM | CN1CCC[C@@H](C(=O)Nc2cc3c(c(-c4cccc(F)c4)c2)CN(C#N)C3)C1 [Example 25, (R)-N-(2-cyano-7-(3-fluorophenyl)isoindolin-5-yl)-1-methylpiperidine-3-carboxamide]
37 | < 1000 nM | CN1CCC[C@@H](C(=O)Nc2cc3c(c(-c4cccc(C#N)c4)c2)CN(C#N)C3)C1 [Example 27, (R)-N-(2-cyano-7-(3-cyanophenyl)isoindolin-5-yl)-1-methylpiperidine-3-carboxamide]
38 | < 1000 nM | CN1CCC[C@@H](C(=O)Nc2cc3c(c(-c4ccc(F)cc4)c2)CN(C#N)C3)C1 [Example 28, (R)-N-(2-cyano-7-(4-fluorophenyl)isoindolin-5-yl)-1-methylpiperidine-3-carboxamide]
39 | < 1000 nM | CN1CCC[C@@H](C(=O)Nc2cc3c(c(-c4ccc(Cl)cc4)c2)CN(C#N)C3)C1 [Example 33, (R)-N-(7-(4-chlorophenyl)-2-cyanoisoindolin-5-yl)-1-methylpiperidine-3-carboxamide]
40 | 1000 to 10000 nM | CN1CCC[C@@H](C(=O)Nc2cc3c(c(-c4cccc(Cl)c4)c2)CN(C#N)C3)C1 [Example 34, (R)-N-(7-(3-chlorophenyl)-2-cyanoisoindolin-5-yl)-1-methylpiperidine-3-carboxamide]
41 | < 1000 nM | Cc1nc2ccc(-c3cc(NC(=O)[C@@H]4CCCN(C)C4)cc4c3CN(C#N)C4)cc2o1 [Example 35, (R)-N-(2-cyano-7-(2-methylbenzo[d]oxazol-6-yl)isoindolin-5-yl)-1-methylpiperidine-3-carboxamide]
